Results reported in US10875845B2, “Compounds and methods for the treatment of ocular disorders” (Azura Ophthalmics Ltd., priority 2019, dated 2020).

How the values were obtained:
[1] = system: Rabbit Cornea Homogenate; assay: Rabbit Cornea Homogenate Stability Assay (rabbit cornea esterase assay); type: in vitro ADME; conditions: 37° C.
Procedure: Determining Rabbit Cornea Homogenate stability of the test compounds was performed using HPLC-MS. The assay was performed at two concentrations of Rabbit Cornea Homogenate (0.15 mg/ml and 0.45 mg/ml total protein) so that any hydrolysis observed could be assigned as esterase dependent or not.
Five rabbit corneas (e.g. New Zealand Whites) of approx. 50 mg each were sliced and scraped with a scalpel and tweezers until reduced to small (1-3 mm), thin pieces. These were transferred into a tared vial and accurately weighed, then diluted with 10 volumes aqueous PBS pH7.4
Sample was cooled intermittently on ice and shear homogenized for 3 minutes, then centrifuged for 3 min at 3000 rpm. The supernatant was pipetted off into a vial, and total protein concentration determined at 280 nm. Sample was stored at −78° C.
10 mM Compound stocks were diluted to 100 μM in a 96 deep-well plate: 10 μl of 10 mM Compound stock was added to 990 μl 50 mM HEPES, pH7.5 buffer.
Compounds were further diluted to 10 μM: 100 μl of 100 μM compound was added to 900 μl 50 mM HEPES, pH7.5 buffer.
Esterase homogenate was diluted to 300 ng/μl and 900 ng/μl
A heater shaker was set to 37° C. Into a suitable 96 well plate (Run Plate), 75 μl of 300 or 900 ng/μl esterase homogenate was pipetted into each of the required wells (2 min, 5 min, 10 min, 20 min and 45 min). The plate was sealed and then warmed at 37° C. for 5 min. Another 96 well PCR plate is put on ice (Kill Plate). To this was added 100 μl of MeCN to each well, labelled 0 min, 2 min, 5 min, 10 min, 20 min and 45 min. The plate was covered to minimise evaporation. For the T=0 sample only, to the 100 μl cold MeCN stop solution was added 50 μl of 300 or 900 ng/μl esterase homogenate followed by 50 μl of 10 μM compound solution For the remaining time points, 75 μl of 10 μM compound solution was added to the Run Plate starting from T=45 min row and ending with T=2 min row. At the appropriate time point, 100 μl of the assay mixture was added to the matching kill plate well containing 100 μl of cold MeCN. Samples were analysed as soon as practicable by LCMS (Waters Xevo TQ-S or Micromass Ultima).
Parent conjugate and parent concentrations were determined against appropriate standard response curves and the half-life (T1/2) of the parent conjugate was calculated using the peak area of the parent conjugate at each time point in the linear region of the log—linear plot.

[2] = Aqueous Hydrolysis Stability Assay; type: physicochemical; conditions: 100 μM in 50 mM HEPES pH 7.5 buffer or 1:1 Acetonitrile:Water, room temperature
Procedure: Determination of aqueous stability of the test compounds was performed using HPLC-MS. A test compound 10 mM stock solution was prepared in DMSO. 10 μl of the DMSO stock solution was dissolved in 990 μl of 50 mM HEPES pH 7.5 buffer or 1:1 (v/v) of Acetonitrile:Water to make a 100 μM solution. Final DMSO concentration was 1%. The solution was kept at room temperature and injected without delay into the LCMS (Waters Xevo TQ-S or Micromass Ultima). Additional injections were performed at appropriate time points.
Half-life (T1/2) of the parent conjugate was calculated using the peak area of the parent conjugate at each time point in the linear region of the log—linear plot.

[3] = Cornea Homogenate Conc 0.15 mg/mL
[4] = Cornea Homogenate Conc 0.45 mg/mL

API Formation rate [1, 3]	Esterase % Lifitegrast formation at 45 min [1, 3]	API Formation rate [1, 4]	Esterase % Lifitegrast formation at 45 min [1, 4]	Compound	Hydrolytic % Lifitegrast formation at [time] ([2]; at 142 min)	Hydrolytic % Lifitegrast formation at [time] ([2]; at 45 min)	Hydrolytic % Lifitegrast formation at [time] ([2]; at 192 min)
c (API formation rate 1.0-1.5%/min)	C (percent API formation 51% to 75%)	d (API formation rate>1.5%/min)	D (percent API formation>75%)	CC(OC(=O)[C@H](Cc1cccc(S(C)(=O)=O)c1)NC(=O)c1c(Cl)cc2c(c1Cl)CCN(C(=O)c1ccc3ccoc3c1)C2)OC(=O)[C@@H](C)O (stereo partly drawn) [Comp 18, 1-(((R)-2-hydroxypropanoyl)oxy) ethyl (2S)-2-(2-(benzofuran-6-carbonyl)-5,7-dichloro-1,2,3,4-tetrahydroisoquinoline-6-carboxamido)-3-(3-(methylsulfonyl)phenyl) propanoate]	–	C [45 min] (percent API formation>4%)	–
b (API formation rate 0.5-1.0%/min)	B (percent API formation 25% to 50%)	d (API formation rate>1.5%/min)	C (percent API formation 51% to 75%)	CC(OC(=O)OCC1COC(C)(C)OC1)OC(=O)[C@H](Cc1cccc(S(C)(=O)=O)c1)NC(=O)c1c(Cl)cc2c(c1Cl)CCN(C(=O)c1ccc3ccoc3c1)C2 (stereo partly drawn) [Comp 9, 1-((((2,2-dimethyl-1,3-dioxan-5-yl)methoxy)carbonyl)oxy) ethyl (2S)-2-(2-(benzofuran-6-carbonyl)-5,7-dichloro-1,2,3,4-tetrahydroisoquinoline-6-carboxamido)-3-(3-(methylsulfonyl)phenyl) propanoate]	B [142 min] (percent API formation 1.5-4%)	–	–
b (API formation rate 0.5-1.0%/min)	B (percent API formation 25% to 50%)	c (API formation rate 1.0-1.5%/min)	C (percent API formation 51% to 75%)	CCOC(=O)OC(C)OC(=O)[C@H](Cc1cccc(S(C)(=O)=O)c1)NC(=O)c1c(Cl)cc2c(c1Cl)CCN(C(=O)c1ccc3ccoc3c1)C2 (stereo partly drawn) [Comp 4, 1-((ethoxycarbonyl)oxy)ethyl (2S)-2-(2-(benzofuran-6-carbonyl)-5,7-dichloro-1,2,3,4-tetrahydroisoquinoline-6-carboxamido)-3-(3-(methylsulfonyl)phenyl) propanoate]	–	B [45 min] (percent API formation 1.5-4%)	–
b (API formation rate 0.5-1.0%/min)	B (percent API formation 25% to 50%)	c (API formation rate 1.0-1.5%/min)	C (percent API formation 51% to 75%)	COC(=O)[C@@H](C)OC(=O)OC(C)OC(=O)[C@H](Cc1cccc(S(C)(=O)=O)c1)NC(=O)c1c(Cl)cc2c(c1Cl)CCN(C(=O)c1ccc3ccoc3c1)C2 (stereo partly drawn) [Comp 7, 1-(((((R)-1-methoxy-1-oxopropan-2-yl)oxy)carbonyl)oxy)ethyl (2S)-2-(2-(benzofuran-6-carbonyl)-5,7-dichloro-1,2,3,4-tetrahydroisoquinoline-6-carboxamido)-3-(3-(methylsulfonyl)phenyl) propanoate]	B [142 min] (percent API formation 1.5-4%)	–	–
b (API formation rate 0.5-1.0%/min)	B (percent API formation 25% to 50%)	d (API formation rate>1.5%/min)	D (percent API formation>75%)	CC(C)OC(=O)OC(C)OC(=O)[C@H](Cc1cccc(S(C)(=O)=O)c1)NC(=O)c1c(Cl)cc2c(c1Cl)CCN(C(=O)c1ccc3ccoc3c1)C2 (stereo partly drawn) [Comp 5, 1-((isopropoxycarbonyl)oxy)ethyl (2S)-2-(2-(benzofuran-6-carbonyl)-5,7-dichloro-1,2,3,4-tetrahydroisoquinoline-6-carboxamido)-3-(3-(methylsulfonyl)phenyl) propanoate]	–	–	A [192 min] (percent active pharmaceutical ingredient (API) formation<1.5%)
d (API formation rate>1.5%/min)	B (percent API formation 25% to 50%)	b (API formation rate 0.5-1.0%/min)	C (percent API formation 51% to 75%)	COC(=O)OC(C)OC(=O)[C@H](Cc1cccc(S(C)(=O)=O)c1)NC(=O)c1c(Cl)cc2c(c1Cl)CCN(C(=O)c1ccc3ccoc3c1)C2 (stereo partly drawn) [Comp 3, 1-((methoxycarbonyl)oxy) ethyl (2S)-2-(2-(benzofuran-6-carbonyl)-5,7-dichloro-1,2,3,4-tetrahydroisoquinoline-6-carboxamido)-3-(3-(methylsulfonyl)phenyl) propanoate]	–	B [45 min] (percent API formation 1.5-4%)	–

Compound	API Formation rate [1, 3]	Esterase % Lifitegrast formation at 45 min [1, 3]	API Formation rate [1, 4]	Esterase % Lifitegrast formation at 45 min [1, 4]	Hydrolytic % Lifitegrast formation at [time] ([2]; at 142 min)	Hydrolytic % Lifitegrast formation at [time] ([2]; at 45 min)	Hydrolytic % Lifitegrast formation at [time] ([2]; at 192 min)
CC(=O)OC(C)OC(=O)[C@H](Cc1cccc(S(C)(=O)=O)c1)NC(=O)c1c(Cl)cc2c(c1Cl)CCN(C(=O)c1ccc3ccoc3c1)C2 (stereo partly drawn) [Comp 14, 1-acetoxyethyl (2S)-2-(2-(benzofuran-6-carbonyl)-5,7-dichloro-1,2,3,4-tetrahydroisoquinoline-6-carboxamido)-3-(3-(methylsulfonyl)phenyl) propanoate]	c (API formation rate 1.0-1.5%/min)	C (percent API formation 51% to 75%)	d (API formation rate>1.5%/min)	D (percent API formation>75%)	B [142 min] (percent API formation 1.5-4%)	–	–
CC(OC(=O)CO)OC(=O)[C@H](Cc1cccc(S(C)(=O)=O)c1)NC(=O)c1c(Cl)cc2c(c1Cl)CCN(C(=O)c1ccc3ccoc3c1)C2 (stereo partly drawn) [Comp 19, 1-(2-hydroxyacetoxy)ethyl (2S)-2-(2-(benzofuran-6-carbonyl)-5,7-dichloro-1,2,3,4-tetrahydroisoquinoline-6-carboxamido)-3-(3-(methylsulfonyl)phenyl) propanoate]	b (API formation rate 0.5-1.0%/min)	B (percent API formation 25% to 50%)	b (API formation rate 0.5-1.0%/min)	B (percent API formation 25% to 50%)	–	B [45 min] (percent API formation 1.5-4%)	–
CC(OC(=O)OCC(CO)CO)OC(=O)[C@H](Cc1cccc(S(C)(=O)=O)c1)NC(=O)c1c(Cl)cc2c(c1Cl)CCN(C(=O)c1ccc3ccoc3c1)C2 (stereo partly drawn) [Comp 10, 1-(((3-hydroxy-2-(hydroxymethyl)propoxy)carbonyl)oxy)ethyl (2S)-2-(2-(benzofuran-6-carbonyl)-5,7-dichloro-1,2,3,4-tetrahydroisoquinoline-6-carboxamido)-3-(3-(methylsulfonyl)phenyl) propanoate]	b (API formation rate 0.5-1.0%/min)	A (percent active pharmaceutical ingredient (API) formation<25%)	b (API formation rate 0.5-1.0%/min)	B (percent API formation 25% to 50%)	C [142 min] (percent API formation>4%)	–	–
CC(OC(=O)OC(C)(C)C)OC(=O)[C@H](Cc1cccc(S(C)(=O)=O)c1)NC(=O)c1c(Cl)cc2c(c1Cl)CCN(C(=O)c1ccc3ccoc3c1)C2 (stereo partly drawn) [Comp 6, 1-((tert-butoxycarbonyl)oxy)ethyl (2S)-2-(2-(benzofuran-6-carbonyl)-5,7-dichloro-1,2,3,4-tetrahydroisoquinoline-6-carboxamido)-3-(3-(methylsulfonyl)phenyl) propanoate]	a (API formation rate<0.5%/min)	A (percent active pharmaceutical ingredient (API) formation<25%)	b (API formation rate 0.5-1.0%/min)	B (percent API formation 25% to 50%)	C [142 min] (percent API formation>4%)	–	–
